Measurements taken from patent US20230089867A1, “CYCLIC PENTAMER COMPOUNDS AS PROPROTEIN CONVERTASE SUBTILISIN/KEXIN TYPE 9 (PCSK9) INHIBITORS FOR THE TREATMENT OF METABOLIC DISORDER” (Novartis AG, priority 2018, published 2023).

Target: human PCSK9 (Homo sapiens, UniProt Q8NBP7)
Assay: PCSK9 ligand binding TR-FRET assay (interference with binding of human PCSK9 to human LDLR)
Conditions: for Max % inhibition: PCSK9 FRET assay, efficacy (Amax), 100% = 1 uM unlabeled human PCSK9, 0% = DMSO; for IC50: TR-FRET, human PCSK9 Alexa Fluor 647 / human LDLR extracellular domain-Europium Kryptate, read-out: PCSK9 FRET Assay IC50
Method in brief: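 Threefold compound dilutions were pre-incubated 30 min with PCSK9, after which 4 nM Europium Kryptate-tagged human LDLR ectodomain was added for a further 2 h.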

Sequence of human PCSK9 (Q8NBP7 153-692): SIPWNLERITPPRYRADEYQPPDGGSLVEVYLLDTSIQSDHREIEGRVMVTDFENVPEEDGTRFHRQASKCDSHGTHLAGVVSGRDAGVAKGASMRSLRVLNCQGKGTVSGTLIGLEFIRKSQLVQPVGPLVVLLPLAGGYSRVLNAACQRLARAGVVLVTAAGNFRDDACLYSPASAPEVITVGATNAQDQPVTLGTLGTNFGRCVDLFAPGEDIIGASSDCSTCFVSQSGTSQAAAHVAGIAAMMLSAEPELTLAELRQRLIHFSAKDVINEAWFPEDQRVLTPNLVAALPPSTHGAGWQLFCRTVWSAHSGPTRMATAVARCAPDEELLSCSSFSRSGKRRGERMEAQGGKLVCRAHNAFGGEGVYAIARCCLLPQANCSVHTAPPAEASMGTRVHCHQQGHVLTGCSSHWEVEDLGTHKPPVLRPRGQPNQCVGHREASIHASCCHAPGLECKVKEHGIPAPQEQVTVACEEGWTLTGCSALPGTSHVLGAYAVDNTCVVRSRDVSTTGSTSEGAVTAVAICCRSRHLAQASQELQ
Sequence of human PCSK9 (Q8NBP7 31-152 partner limits assumed): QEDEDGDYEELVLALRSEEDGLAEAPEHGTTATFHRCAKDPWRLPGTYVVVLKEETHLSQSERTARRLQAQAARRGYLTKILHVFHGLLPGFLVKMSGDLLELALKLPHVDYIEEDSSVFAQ

Compound	Max % inhibition	IC50
COC[C@@H]1NC(=O)[C@H](C)N(Cc2ccc(Cl)cc2Oc2ccc(-c3cnc(CN(C)C)n3C)cc2)C(=O)C[C@@H](Cc2ccccc2)C(=O)N(C)[C@@H](C)CNC(=O)C[C@H](Cc2ccc(Cl)cc2)N(C)C1=O [Compound 126, (2S,5S,8S,13S,16R)-16-benzyl-1-(4-chloro-2-(4-(2-((dimethylamino)methyl)-1-methyl-1H-imidazol-5-yl)phenoxy)benzyl)-8-(4-chlorobenzyl)-5-(methoxymethyl)-2,7,13,14-tetramethyl-1,4,7,11,14-pentaazacyclooctadecane-3,6,10,15,18-pentaone]	101.12%	1.5 nM
COC[C@@H]1NC(=O)[C@H](CCCNC(=O)OC(C)(C)C)N(Cc2ccc(Cl)cc2Oc2ccc(-c3cnc(CN4CCCC4)n3C)cc2)C(=O)C[C@@H](Cc2ccccc2)C(=O)N(C)[C@H]2CCCC[C@@H]2NC(=O)C[C@H](Cc2ccc(Cl)cc2)N(C)C1=O [Compound 191, tert-butyl (3-((4S,7S,10S,14R,16aS,20aS)-14-benzyl-11-(4-chloro-2-(4-(1-methyl-2-(pyrrolidin-1-ylmethyl)-1H-imidazol-5-yl)phenoxy)benzyl)-4-(4-chlorobenzyl)-7-(methoxymethyl)-5,16-dimethyl-2,6,9,12,15-pentaoxodocosahydrobenzo[l][1,4,7,11,14]pentaazacyclooctadecin-10-yl)propyl)carbamate]	94.20%	2.1 nM
COC[C@@H]1NC(=O)[C@H](C)N(Cc2c(F)cc(F)cc2Oc2ccc(-c3cnc(CN(C)C)n3C)cc2)C(=O)C[C@@H](Cc2ccccc2)C(=O)N(C)[C@H]2CCCC[C@@H]2NC(=O)C[C@H](Cc2ccc(Cl)cc2)N(C)C1=O [Compound 208, (4S,7S,10S,14R,16aS,20aS)-14-benzyl-4-(4-chlorobenzyl)-11-(2-(4-(2-((dimethylamino)methyl)-1-methyl-1H-imidazol-5-yl)phenoxy)-4,6-difluorobenzyl)-7-(methoxymethyl)-5,10,16-trimethylhexadecahydrobenzo[l][1,4,7,11,14]pentaazacyclooctadecine-2,6,9,12,15(3H)-pentaone]	87.45%	2.7 nM
COC[C@@H]1NC(=O)[C@H](CCCN)N(Cc2ccc(Cl)cc2Oc2ccc(-c3cnc(CN(C)C)n3C)cc2)C(=O)C[C@@H](Cc2ccccc2)C(=O)N(C)[C@H]2CCCC[C@@H]2NC(=O)C[C@H](Cc2ccc(Cl)cc2)N(C)C1=O [Compound 304, (4S,7S,10S,14R,16aS,20aS)-10-(3-aminopropyl)-14-benzyl-11-(4-chloro-2-(4-(2-((dimethylamino)methyl)-1-methyl-1H-imidazol-5-yl)phenoxy)benzyl)-4-(4-chlorobenzyl)-7-(methoxymethyl)-5,16-dimethylhexadecahydrobenzo[l][1,4,7,11,14]pentaazacyclooctadecine-2,6,9,12,15(3H)-pentaone]	88.80%	0.6 nM
C[C@H]1C(=O)N[C@@H](COC(F)F)C(=O)N(C)[C@@H](Cc2ccc(Cl)cc2)CC(=O)N[C@H]2CCCC[C@@H]2N(C)C(=O)[C@H](Cc2ccccc2)CC(=O)N1Cc1ccc(Cl)cc1Oc1ccc(-c2cnc(CN(C)C)n2C)cc1 [Compound 79, (4S,7S,10S,14R,16aS,20aS)-14-benzyl-11-(4-chloro-2-(4-(2-((dimethylamino)methyl)-1-methyl-1H-imidazol-5-yl)phenoxy)benzyl)-4-(4-chlorobenzyl)-7-((difluoromethoxy)methyl)-5,10,16-trimethylhexadecahydrobenzo[l][1,4,7,11,14]pentaazacyclooctadecine-2,6,9,12,15(3H)-pentaone]	103.04%	1.8 nM
COC[C@@H]1NC(=O)[C@H](C)N(Cc2ccc(Cl)cc2Oc2ccc(-c3cnc(CN4CCCC4)n3C)cc2)C(=O)C[C@@H](Cc2ccccc2)C(=O)N(C)[C@@H](CCCCNC(C)=O)CNC(=O)C[C@H](Cc2ccc(Cl)cc2)N(C)C1=O.O=C(O)C(F)(F)F [Compound 217, N-(4-((2S,5S,8S,13S,16R)-16-benzyl-1-(4-chloro-2-(4-(1-methyl-2-(pyrrolidin-1-ylmethyl)-1H-imidazol-5-yl)phenoxy)benzyl)-8-(4-chlorobenzyl)-5-(methoxymethyl)-2,7,14-trimethyl-3,6,10,15,18-pentaoxo-1,4,7,11,14-pentaazacyclooctadecan-13-yl)butyl)acetamide trifluoroacetate]	95.74%	0.7 nM
CC[C@H]1C(=O)N[C@@H](COC)C(=O)N(C)[C@@H](Cc2ccc(Cl)c(F)c2)CC(=O)NC[C@H](C)N(C)C(=O)[C@H](Cc2ccccc2)CC(=O)N1Cc1ccc(Cl)cc1Oc1ccc(-c2cnc(CN(C)C)n2C)cc1 [Compound 209, (2S,5S,8S,13S,16R)-16-benzyl-1-(4-chloro-2-(4-(2-((dimethylamino)methyl)-1-methyl-1H-imidazol-5-yl)phenoxy)benzyl)-8-(4-chloro-3-fluorobenzyl)-2-ethyl-5-(methoxymethyl)-7,13,14-trimethyl-1,4,7,11,14-pentaazacyclooctadecane-3,6,10,15,18-pentaone]	98.10%	4.9 nM
COC[C@@H]1NC(=O)[C@H](C)N(Cc2ccc(Cl)cc2Oc2ccc(-c3cnc(CN(C)C)n3C)cc2)C(=O)C[C@@H](C2CC2)C(=O)N(C)[C@@H](C)CNC(=O)C[C@H](Cc2ccc(Cl)cc2)N(C)C1=O [Compound 215, (2S,5S,8S,13S)-1-(4-chloro-2-(4-(2-((dimethylamino)methyl)-1-methyl-1H-imidazol-5-yl)phenoxy)benzyl)-8-(4-chlorobenzyl)-16-cyclopropyl-5-(methoxymethyl)-2,7,13,14-tetramethyl-1,4,7,11,14-pentaazacyclooctadecane-3,6,10,15,18-pentaone]	95.08%	11 nM
C[C@H]1CNC(=O)C[C@H](Cc2ccc(Cl)cc2)N(C)C(=O)[C@H](CC(=O)N(C)C)NC(=O)[C@H](C)N(Cc2ccc(Cl)cc2Oc2ccc(-c3cnc(CN(C)C)n3C)cc2)C(=O)C[C@@H](Cc2ccccc2)C(=O)N1C [Compound 160, 2-((2S,5S,8S,13S,16R)-16-benzyl-1-(4-chloro-2-(4-(2-((dimethylamino)methyl)-1-methyl-1H-imidazol-5-yl)phenoxy)benzyl)-8-(4-chlorobenzyl)-2,7,13,14-tetramethyl-3,6,10,15,18-pentaoxo-1,4,7,11,14-pentaazacyclooctadecan-5-yl)-N,N-dimethylacetamide]	91.45%	7.6 nM
C[C@H]1CNC(=O)C[C@H](Cc2ccc(Cl)cc2)N(C)C(=O)[C@H](C2COC2)NC(=O)[C@H](C)N(Cc2ccc(Cl)cc2Oc2ccc(-c3cnc(CN(C)C)n3C)cc2)C(=O)C[C@@H](Cc2ccccc2)C(=O)N1C [Compound 31, (2S,5S,8S,13S,16R)-16-benzyl-1-(4-chloro-2-(4-(2-((dimethylamino)methyl)-1-methyl-1H-imidazol-5-yl)phenoxy)benzyl)-8-(4-chlorobenzyl)-2,7,13,14-tetramethyl-5-(oxetan-3-yl)-1,4,7,11,14-pentaazacyclooctadecane-3,6,10,15,18-pentaone]	60.09%	787 nM
COC[C@@H]1NC(=O)[C@H](CCC(=O)OC(C)(C)C)N(Cc2ccc(Cl)cc2Oc2ccc(-c3cnc(CN(C)C)n3C)cc2)C(=O)C[C@@H](Cc2ccccc2)C(=O)N(C)[C@@H](C)CNC(=O)C[C@H](Cc2ccc(Cl)cc2)N(C)C1=O [Compound 10, tert-butyl 3-((2S,5S,8S,13S,16R)-16-benzyl-1-(4-chloro-2-(4-(2-((dimethylamino)methyl)-1-methyl-1H-imidazol-5-yl)phenoxy)benzyl)-8-(4-chlorobenzyl)-5-(methoxymethyl)-7,13,14-trimethyl-3,6,10,15,18-pentaoxo-1,4,7,11,14-pentaazacyclooctadecan-2-yl)propanoate]	101.88%	4.3 nM
C[C@H]1C(=O)N[C@@H](CO)C(=O)N(C)[C@@H](Cc2ccc(Cl)cc2)CC(=O)N[C@H]2CCCC[C@@H]2N(C)C(=O)[C@H](Cc2ccccc2)CC(=O)N1Cc1ccc(Cl)cc1Oc1ccc(-c2cnc(CN(C)C)n2C)cc1 [Compound 243, (4S,7S,10S,14R,16aS,20aS)-14-benzyl-11-(4-chloro-2-(4-(2-((dimethylamino)methyl)-1-methyl-1H-imidazol-5-yl)phenoxy)benzyl)-4-(4-chlorobenzyl)-7-(hydroxymethyl)-5,10,16-trimethylhexadecahydrobenzo[l][1,4,7,11,14]pentaazacyclooctadecine-2,6,9,12,15(3H)-pentaone]	97.38%	0.9 nM
COC[C@@H]1NC(=O)C(C)N(Cc2ccc(Cl)cc2Oc2ccc(-c3cnc(CN(C)C)n3C)cc2)C(=O)C[C@@H](C)C(=O)N(C)[C@@H](CC(C)C)CNC(=O)C[C@H](Cc2ccc(Cl)cc2)N(C)C1=O (stereo partly drawn) [Compound 184, (5S,8S,13S,16R)-1-(4-chloro-2-(4-(2-((dimethylamino)methyl)-1-methyl-1H-imidazol-5-yl)phenoxy)benzyl)-8-(4-chlorobenzyl)-13-isobutyl-5-(methoxymethyl)-2,7,14,16-tetramethyl-1,4,7,11,14-pentaazacyclooctadecane-3,6,10,15,18-pentaone]	54.06%	9.4 nM
COC[C@@H]1NC(=O)[C@H](C)N(Cc2ccc(Cl)cc2Oc2ccc(-c3cnc(CN(C)C)n3C)cc2)C(=O)C[C@@H](Cc2cccc(OC(F)F)c2)C(=O)N(C)[C@@H](C)CNC(=O)C[C@H](Cc2ccc(Cl)cc2)N(C)C1=O [Compound 238, (2S,5S,8S,13S,16R)-1-(4-chloro-2-(4-(2-((dimethylamino)methyl)-1-methyl-1H-imidazol-5-yl)phenoxy)benzyl)-8-(4-chlorobenzyl)-16-(3-(difluoromethoxy)benzyl)-5-(methoxymethyl)-2,7,13,14-tetramethyl-1,4,7,11,14-pentaazacyclooctadecane-3,6,10,15,18-pentaone]	104.90%	2.5 nM
